Results as given in ChEMBL document CHEMBL4118183, “Lipophilic methylene blue analogues enhance mitochondrial function and increase frataxin levels in a cellular model of Friedreich's ataxia” (Bioorg Med Chem, 2018).
Calls of active or inactive are those of the source. The calls are words filed in the database; no cut-off is given here.

What was measured:
[1] = Induction of inner mitochondrial membrane potential depolarization in human Friedreich's ataxia lymphocytes assessed as JC-1 aggregates at 2500 nM after 16 hrs by JC1-staining based flow cytometry (reference value: 83%); format: functional, Friedreich's ataxia lymphocyte
[2] = Cytotoxicity against human Friedreich's ataxia lymphocytes assessed as cell viability by measuring dead cells at 250 nM after 24 hrs by calceinAM ester/ethidium homodimer-1 staining based flow cytometry (reference value: 11.2%); conditions: friedreich's ataxia lymphocyte, 0.25 µM
[3] = Cytotoxicity against human Friedreich's ataxia lymphocytes assessed as cell viability by measuring live cells at 250 nM after 24 hrs by calceinAM ester/ethidium homodimer-1 staining based flow cytometry (reference value: 88.2%); set-up: species or system Friedreich's ataxia lymphocyte; conditions: read-out: Activity
[4] = Cytotoxicity against human Friedreich's ataxia lymphocytes assessed as cell viability by measuring dead cells at 2500 nM after 24 hrs by calceinAM ester/ethidium homodimer-1 staining based flow cytometry (reference value: 11.2%); conditions: friedreich's ataxia lymphocyte, 2.5 µM
[5] = Cytotoxicity against human Friedreich's ataxia lymphocytes assessed as cell viability by measuring live cells at 2500 nM after 24 hrs by calceinAM ester/ethidium homodimer-1 staining based flow cytometry (reference value: 88.2%); set-up: species or system Friedreich's ataxia lymphocyte; conditions: read-out: Activity
[6] = Cytotoxicity against human Friedreich's ataxia lymphocytes assessed as cell viability by measuring dead cells at 250 nM after 48 hrs by calceinAM ester/ethidium homodimer-1 staining based flow cytometry (reference value: 10.6%); conditions: friedreich's ataxia lymphocyte, 0.25 µM
[7] = Cytotoxicity against human Friedreich's ataxia lymphocytes assessed as cell viability by measuring live cells at 250 nM after 48 hrs by calceinAM ester/ethidium homodimer-1 staining based flow cytometry (reference value: 89.3%); set-up: species or system Friedreich's ataxia lymphocyte; conditions: read-out: Activity
[8] = Cytotoxicity against human Friedreich's ataxia lymphocytes assessed as cell viability by measuring dead cells at 2500 nM after 48 hrs by calceinAM ester/ethidium homodimer-1 staining based flow cytometry (reference value: 10.6%); conditions: friedreich's ataxia lymphocyte, 2.5 µM
[9] = Cytotoxicity against human Friedreich's ataxia lymphocytes assessed as cell viability by measuring live cells at 2500 nM after 48 hrs by calceinAM ester/ethidium homodimer-1 staining based flow cytometry (reference value: 89.3%); set-up: species or system Friedreich's ataxia lymphocyte; conditions: read-out: Activity
[10] = (§1) Cytoprotective activity against BSO-treated human Friedreich's ataxia fibroblasts assessed as increase in cell viability incubated overnight followed by BSO addition measured after 48 hrs by calceinAM ester/ethidium homodimer-1 staining based flow cytometry; format: functional
Homo sapiens [11] = species on record: Homo sapiens; assay: as §1; format: functional
Homo sapiens [12] = species on record: Homo sapiens; assay: Cytoprotective activity against BSO-treated human Friedreich's ataxia fibroblasts assessed as increase in cell viability at 25 to 50 nM incubated overnight followed by BSO addition measured after 48 hrs by calceinAM ester/ethidium homodimer-1 staining based flow cytometry; format: functional
[13] = tested on: Friedreich's ataxia lymphocyte; assay: Cytoprotective activity against rotenone-induced cytotoxicity in human Friedreich's ataxia lymphocytes assessed as increase in cell viability at 250 to 2500 nM preincubated for 12 hrs followed by complex 1 inhibitor rotenone addition measured after 16 hrs by calceinAM ester/ethidium homodimer-1 staining based flow cytometry; format: functional
[14] = Induction of inner mitochondrial membrane potential depolarization in human Friedreich's ataxia lymphocytes assessed as JC-1 aggregates at 250 nM after 16 hrs by JC1-staining based flow cytometry (reference value: 83%); format: functional, Friedreich's ataxia lymphocyte
[15] = Induction of inner mitochondrial membrane potential depolarization in human Friedreich's ataxia lymphocytes assessed as JC-1 monomers at 250 nM after 16 hrs by JC1-staining based flow cytometry (reference value: 17.3%); format: functional, Friedreich's ataxia lymphocyte
[16] = Induction of inner mitochondrial membrane potential depolarization in human Friedreich's ataxia lymphocytes assessed as JC-1 monomers at 2500 nM after 16 hrs by JC1-staining based flow cytometry (reference value: 17.3%); format: functional, Friedreich's ataxia lymphocyte
[17] = tested on: Friedreich's ataxia lymphocyte; assay: Inhibition of DEM-induced ROS production in human Friedreich's ataxia lymphocytes incubated for 16 hrs followed by DEM treatment for 80 mins by DCFH-DA dye based flow cytometry; format: functional, cell-based
[18] = tested on: Friedreich's ataxia lymphocyte; assay: Increase in total ATP levels in human Friedreich's ataxia lymphocytes at 0.5 to 2.5 uM after 24 hrs by bioluminescence assay; format: functional, cell-based
[19] = tested on: Friedreich's ataxia lymphocyte; assay: Increase in total ATP levels in human Friedreich's ataxia lymphocytes at 0.1 uM after 24 hrs by bioluminescence assay; format: functional, cell-based
[20] = Increase in frataxin protein expression levels in FRDA patient derived Friedreich's ataxia lymphocytes at 50 nM after 24 to 48 hrs by ELISA relative to control; format: functional, Homo sapiens, Friedreich's ataxia lymphocyte
[21] = Induction of mitochondrial biogenesis in FRDA patient derived Friedreich's ataxia lymphocytes assessed as increase in COX-1/SDH-A protein levels at 50 nM after 24 to 48 hrs by ELISA relative to control; format: functional, Homo sapiens, Friedreich's ataxia lymphocyte
[22] = tested on: Friedreich's ataxia lymphocyte; assay: (§2) Increase in frataxin protein expression levels in FRDA patient derived Friedreich's ataxia lymphocytes at 250 nM after 24 to 48 hrs by ELISA; format: functional; conditions: Homo sapiens
[23] = tested on: Friedreich's ataxia lymphocyte; assay: (§3) Induction of mitochondrial biogenesis in FRDA patient derived Friedreich's ataxia lymphocytes assessed as increase in COX-1/SDH-A protein levels at 250 nM after 24 to 48 hrs by ELISA; format: functional; conditions: Homo sapiens
Mus musculus = species on record: Mus musculus; assay: Substrate activity at NADH-ubiquinone oxidoreductase in mouse liver mitochondrial membrane fractions assessed as induction of electron flow from complex-1 by measuring NADH oxidation at 5 uM after 5 mins in presence of complex 1 blocker rotenone at 0.1 uM using NADH and coenzyme Q1; format: cell membranes
[24] = tested on: Friedreich's ataxia lymphocyte; assay: Increase in total ATP levels in human Friedreich's ataxia lymphocytes at 0.1 to 0.5 uM after 24 hrs by bioluminescence assay; format: functional, cell-based
[25] = tested on: Friedreich's ataxia lymphocyte; assay: Increase in total ATP levels in human Friedreich's ataxia lymphocytes at 2.5 uM after 24 hrs by bioluminescence assay; format: functional, cell-based
[26] = tested on: Friedreich's ataxia lymphocyte; assay: Restoration of total aconitase activity in FRDA patient derived Friedreich's ataxia lymphocytes at 50 to 250 nM after 5 days by colorimetric assay; format: functional, cell-based; conditions: Homo sapiens
[27] = as §2; format: functional, Homo sapiens, Friedreich's ataxia lymphocyte
[28] = as §3; format: functional, Homo sapiens, Friedreich's ataxia lymphocyte
[29] = tested on: Friedreich's ataxia lymphocyte; assay: Increase in total ATP levels in human Friedreich's ataxia lymphocytes at 100 nM after 24 hrs by bioluminescence assay; format: functional, cell-based
[30] = tested on: Friedreich's ataxia lymphocyte; assay: Inhibition of DEM-induced ROS production in human Friedreich's ataxia lymphocytes at 250 to 2500 nM incubated for 16 hrs followed by DEM treatment for 80 mins by DCFH-DA dye based flow cytometry; format: functional, cell-based

| Compound | Activity [1] | Activity [2] | viability at 24 h, 0.25 µM [3] | Activity [4] | viability at 24 h, 2.5 µM [5] | Activity [6] | viability at 48 h, 0.25 µM [7] | Activity [8] | viability at 48 h, 2.5 µM [9] | EC50 [10] | Activity (Homo sapiens [11]) | Activity (Homo sapiens [12]) | Activity [13] | Activity [14] | Activity [15] | Activity [16] | inhibition [17] | Activity [18] | Activity [22] | Activity [23] | other results |
| --- | --- | --- | --- | --- | --- | --- | --- | --- | --- | --- | --- | --- | --- | --- | --- | --- | --- | --- | --- | --- | --- |
| CCCCCCCCCCCCCCCc1cc2nc3ccc(N(C)C)cc3sc-2cc1=[N+](C)C.[I-] | 73% | 10.3% | 89.4% | 21.4% | 78.2% | 14.5% | 85.4% | 31.2% | 68.7% | 31 nM | Dose-dependent effect | Active | Active | 86.2% | 14.2% | 28.4% | Dose-dependent effect | inactive | inactive | inactive | Activity [19]: Active; Activity [20]: >=10%; Activity [21]: >=15% |
| CCCCCCCCCCCCCCCCc1cc2nc3ccc(N(C)C)cc3sc-2cc1=[N+](C)C.[I-] | 77% | 8.4% | 91.4% | 13% | 87% | 10.5% | 89.4% | 18.6% | 81.2% | 29 nM | Dose-dependent effect | Active | Active | 82.1% | 18.2% | 23.3% | Dose-dependent effect | – | inactive | inactive | Activity (Mus musculus): Active; Activity [24]: Active; Activity [25]: inactive; Activity [20]: >=10%; Activity [21]: >=15%; Activity [26]: Active |
| CN(C)c1ccc2nc3ccc(N(C)C)cc3[s+]c2c1.[Cl-] [METHYLENE BLUE ANHYDROUS] | 49% | 14.3% | – | 39.6% | – | 22.5% | – | 84.3% | – | 75 nM | – | – | – | 80.3% | 20.2% | 51.2% | – | – | – | – | Activity [20]: >=10%; Activity [21]: >=15%; Activity [27]: >=15%; Activity [28]: >=20% |
| CCCCCCCCCCCCCc1cc2nc3ccc(N(C)C)cc3sc-2cc1=[N+](C)C.[I-] | 30.6% | 10.3% | 89.3% | 58.5% | 41.3% | 13.1% | 86.7% | 78% | 21.6% | 37 nM | Dose-dependent effect | Active | Active | 82.8% | 17.6% | 72.2% | Dose-dependent effect | inactive | – | – | Activity [29]: inactive; Activity [27]: >=15%; Activity [28]: >=20% |
| CCCCCCCCCCCc1cc2nc3ccc(N(C)C)cc3sc-2cc1=[N+](C)C.[I-] | 54.8% | 10.2% | 89.5% | 54.7% | 45.1% | 14.2% | 85.7% | 83.5% | 16.2% | 35 nM | Dose-dependent effect | Active | Active | 82.9% | 17.4% | 46.9% | Dose-dependent effect | inactive | inactive | inactive | Activity [29]: inactive; Activity [20]: >=10%; Activity [21]: >=15% |
| CCCCCCCCCCCCCCCCCc1cc2nc3ccc(N4CCOCC4)cc3sc-2cc1=[N+]1CCOCC1.[I-] | 79.8% | 8.6% | 91.3% | 12% | 87.9% | 12.4% | 87.4% | 20.8% | 79% | 52 nM | Dose-dependent effect | – | Active | 84.2% | 16% | 20.7% | – | – | inactive | inactive | inhibition [30]: Active; Activity [24]: Active; Activity [25]: inactive |
| CCCCCCCCCCCCCCCCCc1cc2nc3ccc(N(C)C)cc3sc-2cc1=[N+](C)C.[I-] | 77.1% | 8.8% | 91% | 10.5% | 89.2% | 12.2% | 87.7% | 13.5% | 86.2% | 48 nM | Dose-dependent effect | – | Active | 85.3% | 15.2% | 23.4% | – | – | inactive | inactive | inhibition [30]: Active; Activity [24]: Active; Activity [25]: inactive |
| CN(C)c1ccc2nc3ccc(=[N+](C)C)cc-3sc2c1 [METHYLENE BLUE ANHYDROUS] | – | – | 85.4% | – | 60.2% | – | 77.5% | – | 15.4% | – | Dose-dependent effect | – | Active | – | – | – | Dose-dependent effect | inactive | – | – | Activity (Mus musculus): Active; Activity [29]: inactive; Activity [26]: Active |
| CCCCCc1cc2nc3ccc(N(C)C)cc3sc-2cc1=[N+](C)C.[I-] | 31.4% | 17.2% | 82.6% | 62.4% | 37.5% | 21% | 78.7% | 95.2% | 4.4% | 66 nM | Dose-dependent effect | – | Active | 83.5% | 16.9% | 70.9% | – | inactive | – | – | inhibition [30]: Active; Activity (Mus musculus): Active; Activity [29]: inactive; Activity [27]: >=15%; Activity [28]: >=20% |
